Values after ≈ are worked out from the molar mass of the structure shown.

This experiment in a line: Cytotoxicity against human KBVIN cells. The class given is functional, cell-based.

Consider `COc1cc([C@@H]2c3cc4c(cc3[C@@H](O[C@@H]3O[C@@H]5CO[C@@H](C)O[C@H]5[C@H](O)[C@H]3O)[C@H]3COC(=O)[C@H]23)OCO4)cc(OC)c1O` [ETOPOSIDE], for which it took 8.8 µg/mL (≈ 15 µM) to reach a half-maximal effect (EC50).

A word on the EC50: it is the concentration at which the effect is half-maximal. Read a high EC50 as a less potent agent.

For the origin of these results see ChEMBL document CHEMBL2331517, “Songaricalarins A-E, cytotoxic oplopane sesquiterpenes from Ligularia songarica” (J Nat Prod, 2013).
